The source of these data is ChEMBL document CHEMBL4376829, “Discovery and biological evaluation of vinylsulfonamide derivatives as highly potent, covalent TEAD autopalmitoylation inhibitors” (Eur J Med Chem, 2019).

The target of assay [1] is T1, Transcriptional enhancer factor TEF-3 (Homo sapiens, UniProt Q15561). The assay is described as follows: Inhibition of N-terminal His6 tagged human TEAD4-YBD (217 to 434 residues) expressed in Escherichia coli C43 (DE3) cells assessed as reduction in autopalmitoylation at 200 nM preincubated for 2 hrs followed by palmitoyl alkyne-coenzyme A addition and measured after 30 mins immunoblot analysis relative to control. For orientation: In western blotting, separated proteins are transferred to a membrane and probed.
T1 sequence (Q15561 whole entry, the tested form may be a part): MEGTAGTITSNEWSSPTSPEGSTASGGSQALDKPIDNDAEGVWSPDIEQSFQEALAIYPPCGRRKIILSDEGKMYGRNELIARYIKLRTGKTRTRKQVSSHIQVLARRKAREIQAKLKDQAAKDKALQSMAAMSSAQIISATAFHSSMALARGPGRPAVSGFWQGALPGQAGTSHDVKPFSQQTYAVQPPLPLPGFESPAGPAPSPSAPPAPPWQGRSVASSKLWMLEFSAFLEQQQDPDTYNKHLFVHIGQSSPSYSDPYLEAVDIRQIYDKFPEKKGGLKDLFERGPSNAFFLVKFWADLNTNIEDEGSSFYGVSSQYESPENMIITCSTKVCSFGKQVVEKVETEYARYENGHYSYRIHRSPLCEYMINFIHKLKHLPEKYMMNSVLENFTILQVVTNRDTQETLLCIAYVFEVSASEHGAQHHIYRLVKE

Assay [2] deals with T1, Transcriptional enhancer factor TEF-3. The assay is described as follows: Inhibition of N-terminal His6 tagged human TEAD4-YBD (217 to 434 residues) expressed in Escherichia coli C43 (DE3) cells assessed as reduction in autopalmitoylation at 800 nM preincubated for 2 hrs followed by palmitoyl alkyne-coenzyme A addition and measured after 30 mins by immunoblot analysis relative to control.

The target is the same in assay [3]. Kind of assay: Binding affinity to N-terminal His6 tagged human TEAD4-YBD (217 to 434 residues) expressed in Escherichia coli C43 (DE3) cells by SPR analysis.
The target is the same in assay [4]. Kind of assay: Binding affinity to N-terminal His6 tagged human TEAD4 (217 to 434 residues) expressed in Escherichia coli C43 (DE3) cells incubated for 30 mins by isothermal Titration Calorimetry. On the technique in general: In ITC the heat of successive injections is recorded.
For assay [5] the target is unchanged. Kind of assay: Inhibition of N-terminal His6-tagged human TEAD4 YAP binding domain (217 to 434 residues) expressed in Escherichia coli C43 (DE3) cells assessed reduction in autopalmitoylation preincubated for 2 hrs followed by palmitoyl alkyne coenzyme A addition and measured after 30 mins by immunoblot analysis.
Assay [6] shares this target. The assay is described as follows: Inhibition of N-terminal His6 tagged human TEAD4-YBD (217 to 434 residues) expressed in Escherichia coli C43 (DE3) cells assessed as reduction in autopalmitoylation at 50 uM preincubated for 2 hrs followed by palmitoyl alkyne-coenzyme A addition and measured after 30 mins by immunoblot analysis.
Assay [7] shares this target. Kind of assay: Binding affinity to N-terminal His6 tagged human TEAD4 (217 to 434 residues) expressed in Escherichia coli C43 (DE3) cells at 200 uM by CPMG NMR spectral analysis.
Assay [8] has the same target. The assay is described as follows: Competitive binding affinity to N-terminal His6 tagged human TEAD4 (217 to 434 residues) expressed in Escherichia coli C43 (DE3) cells at 200 uM in presence of palmitoyl CoA by CPMG NMR spectral analysis.
For assay [9] the target is unchanged. The assay is described as follows: Binding affinity to N-terminal His6 tagged human TEAD4 (217 to 434 residues) expressed in Escherichia coli C43 (DE3) cells at 200 uM by STD NMR spectral analysis.
For assay [10] the target is unchanged. Kind of assay: Binding affinity to TEAD4 (unknown origin) assessed as induction of protein folding by SYPRO-dye based thermal shift assay.
Assay [11] has the same target. Kind of assay: Binding affinity to TEAD4 (unknown origin) assessed as change in melting temperature at protein to compound ratio of 1:40 by SYPRO orange dye based thermal shift assay.
Assay [12] shares this target. Kind of assay: Binding affinity to TEAD4 (unknown origin) assessed as change in melting temperature by fluorescence based thermal shift assay.
The target is the same in assay [13]. The assay is described as follows: Binding affinity to TEAD4 (unknown origin) assessed as change in melting temperature at protein to compound ratio of 1:10 by SYPRO orange dye based thermal shift assay.

Active and inactive are the calls of the source. No cut-off for these calls is given here.

For the molecule `C=CS(=O)(=O)Nc1ccccc1Oc1ccccc1`, the inhibition is -4.1% in assay [1] and 25.2% in assay [2].

Consider `C=CS(=O)(=O)Nc1ccc(OCc2ccccc2)cc1`, for which the inhibition came out at 21% in assay [1] and 52.5% in assay [2].

Take `O=C(O)c1ccccc1Nc1cccc(C(F)(F)F)c1` [FLUFENAMIC ACID]: in assay [3], the Kd amounted to 84 µM. Besides, the Kd in [4] worked out at 73 µM. Further, in assay [5], the half-inhibitory concentration (IC50) came out at 54 µM and the inhibition result was “Dose-dependent effect”.

`C=CS(=O)(=O)Nc1ccc2ccccc2c1`: the inhibition in assay [1] came out at 8.4%; in assay [2] it was 1.1%.

As to `C=CS(=O)(=O)Nc1ccc(Cc2ccc3ccccc3c2)c(OC2CCNCC2)c1`, the inhibition in [1] was determined as 1.2%; in assay [2] it was 6.5%. The inhibition entry in assay [6] is “Active”.

In the case of `C=CS(=O)(=O)Nc1ccc(Cc2ccc3ccccc3c2)c(O)c1`, the inhibition in [1] came to 44.3%; in assay [2], 92.1%.

Consider `C=CS(=O)(=O)Nc1ccc(C(=O)Nc2ccc3c(c2)CCNC3)cc1`, for which the inhibition is 0.3% in assay [1] and 10.1% in [2].

For `C=CS(=O)(=O)Nc1ccc(Cc2ccc3ccc(O)cc3c2)cc1`, the results for the inhibition in assay [1] and in [2] were 18.9% and 82.5%, respectively.

Consider `C=CS(=O)(=O)Oc1ccc(Oc2ccccc2)cc1`, for which the inhibition in assay [1] came to 62.2%; in assay [2] it was 94.8%.

Consider `C=CS(=O)(=O)Nc1ccc(NC(=O)c2ccc3ccccc3c2)cc1`, for which the results for the inhibition in assay [1] and in assay [2] were 15.6% and 35%, respectively.

Turning to `Cc1ccc(Oc2ccc(N)cc2)cc1`, the result in [7], in assay [8] and in assay [9] was Active. For the same molecule, the Activity result in assay [10] and in [12] was “Dose-dependent effect” throughout. The equilibrium dissociation constant (Kd) in [3] amounted to 41 µM. Also, the results for the ΔTm in assay [11] and in [13] were 4.5 °C and 3.1 °C, respectively. The IC50 in assay [5] stood at 32 µM. For the same molecule, the inhibition entry in assay [5] was “Dose-dependent effect”.

With `C=CS(=O)(=O)Nc1ccc2c(c1)CCN(C(=O)c1ccccc1)C2`, the inhibition was 5.4% in assay [1] and 25.4% in assay [2].

Consider `C=CS(=O)(=O)Nc1ccc(Cc2ccccc2)cc1`, for which the inhibition turned out to be 59.2% in assay [1] and 92.5% in assay [2].

As a reminder, the inhibition is the change of the read-out against control, counted positive when it falls. In general, Kd refers to the free concentration of one partner at which half of the binding sites on the other are occupied at equilibrium, for simple one-to-one binding. In general, IC50 refers to the midpoint of a concentration-inhibition curve. The ΔTm is the shift of the melting midpoint relative to a reference.
